Reference: PMC3834177 (Cancer Chemotherapy and Pharmacology, 2013)
“And” between values parts separate entries of the source, which are not always exact repeats. Equal entries are not always repeated. “Also recorded” adds a separate entry of the source.

How the values were obtained:
[1] = Midostaurin PK when administered with ketoconazole; settings: for AUC(0-inf): AUC0–inf; for AUC(0-inf) / Cmax: adjusted geometric mean; for Cmax: C max; for half-life: t 1/2, adjusted geometric mean
Method: According to the US Food and Drug Administration, ketoconazole 400 mg once daily is the recommended dose to evaluate DDIs involving CYP3A4 inhibition. [drawing 1]
(§1) Adverse events (AEs) were recorded during the study and up to 1 month (28 days) after the end of study. Volunteers remained at the clinic until AEs were common toxicity criteria (CTC) grade ≤1.
A point estimate and the corresponding 90 % CI for the treatment effect were calculated for the test treatment compared with the reference. These were anti-logged to obtain the point estimate and the 90 % CI for the geometric mean ratio (GMR) on the untransformed scale. […] All ANOVAs were performed using SAS software (SAS Institute Inc., Cary, NC, USA).
(§2) The concentration of ketoconazole in plasma was assessed using a validated LC–MS/MS assay with an LLOQ of 50.0 ng/mL (WuXi Pharmatech Co, Ltd, China). The concentration of rifampicin in plasma was measured using a validated LC–MS/MS assay with an LLOQ of 5.0 ng/mL (SGS, Cephac Europe, SAS). Plasma concentrations of midazolam and its metabolite 1′-hydroxymidazolam, which is generated by CYP3A4 and CYP3A5 in humans, were measured using a validated LC–MS/MS assay with an LLOQ of ≈0.100 ng/mL (SGS, Cephac Europe, SAS). The plasma concentration of 4β-hydroxycholesterol was measured using a validated LC–MS/MS assay with an LLOQ of 3.0 ng/mL (SGS, Cephac Europe, SAS). The concentrations of 6β-hydroxycortisol and cortisol in urine were determined using validated LC–MS/MS assays with an LLOQ of 10.0 ng/mL for 6β-hydroxycortisol and 1.0 ng/mL for cortisol. The ratio of 6β-hydroxycortisol to cortisol was subsequently calculated (SGS, Cephac Europe, SAS). See Supplementary Table 2 for detailed bioanalytical methods for all 3 studies.

[2] = Midostaurin PK when administered with rifampicin; settings: for AUC(0-inf) / AUC(0-t) / Cmax / half-life: human, oral; for AUC(0-inf): AUC0–inf; for AUC(0-inf) / AUC(0-t) / Cmax: adjusted geometric mean; for AUC(0-t): AUC0–last; for Cmax: C max; for half-life: t 1/2, adjusted geometric mean
Method: These endogenous molecules served as exploratory biomarkers for CYP3A4 activity in vivo [21, 22].
A point estimate and the corresponding 90 % CI for the treatment effect (test vs reference) were calculated. These were anti-logged to obtain the GMR and respective 90 % CI. […] The median difference was estimated with the Hodges–Lehmann estimator and its respective exact two-sided 90 % CI. All formal comparative statistical analyses were performed using SAS software.
as §2

CYP3A4 [3] = assay: CYP3A4 activity in vivo in midazolam study (probe and endogenous biomarkers); set-up: species or system human
Method: Both inhibition and induction of midazolam clearance were investigated.
Similarly, blood and urine samples were taken on days 1, 3, 6, 7, 8, and 9 to measure the levels of 4β-hydroxycholesterol in plasma and the 6β-hydroxycortisol/cortisol ratio in urine, markers of CYP3A4 activity.
as §2

[4] = Safety and tolerability, ketoconazole study; type: in vivo, human
Method: as §1

[5] = test system: human serum protein α1-acid glycoprotein (AAG); set-up: method as in PMID 11230495; settings: cited from earlier work
patients with ASM = settings: cited from earlier work
CYP3A4 [6] = settings: patients with ASM, 1–2 months of daily midostaurin dosing; cited from earlier work
[7] = cited from earlier work
[8] = Safety and tolerability, rifampicin study
[9] = human, plasma, oral, plasma, Ketoconazole + midostaurin arm, n = 18
[10] = human, plasma, oral, plasma, Placebo + midostaurin arm, ketoconazole study, n = 18
[11] = midostaurin 50 mg single dose, ketoconazole 400 mg daily
[12] = plasma, plasma, Placebo + midostaurin arm, rifampicin study, n = 20
[13] = plasma, plasma, Rifampicin + midostaurin arm, n = 20
[14] = ketoconazole study, both arms pooled (N = 47)
[15] = ketoconazole study: Mido 50 mg (n = 20) or Mido 50 mg + Keto 400 mg (n = 27)
[16] = phase II, 100 mg twice daily, 26 patients with ASM
[17] = stage 1 analysis, global phase II study, ASM or mast cell leukemia
[18] = rifampicin study: Mido 50 mg + Rifa 600 mg (n = 25) or Mido 50 mg (n = 21)

## CO[C@@H]1[C@H](N(C)C(=O)c2ccccc2)C[C@H]2O[C@]1(C)n1c3ccccc3c3c4c(c5c6ccccc6n2c5c31)C(=O)NC4 [Midostaurin]
[1]; 1 − AUCinf (without ketoconazole)/AUCinf (with ketoconazole)
  fraction of midostaurin metabolized by CYP3A4 (FmCYP3A4): 91%
[1]; co-administration with ketoconazole
  DDI classification (PhRMA proposal for drugs biotransformed via CYP3A4): strong
[1]; compared with placebo
  elimination t 1/2 in the presence of ketoconazole: prolonged
[1]; human, plasma, oral, plasma, Ketoconazole + midostaurin arm (midostaurin 50 mg once, ketoconazole 400 mg daily), n = 18
  AUC(0-inf): 206000 ng·h/mL
[1]; human, plasma, oral, plasma, Placebo + midostaurin arm (midostaurin 50 mg once), ketoconazole study, n = 18
  AUC(0-inf): 19800 ng·h/mL
[1]; [9]
  Cmax: 2890 ng/mL
  half-life: 90.6 h
[1]; [10]
  Cmax: 1590 ng/mL
  half-life: 23.3 h
[1]; human, plasma, oral, t max, median, plasma, Ketoconazole + midostaurin arm, n = 18
  Tmax: 1.5 h
[1]; ketoconazole + midostaurin vs placebo + midostaurin
  t max, Hodges–Lehmann estimate of median difference (90 % distribution-free CI): 0.5 (0, 0.5) h
[1]; [11]
  increase in AUC (exposure) with ketoconazole compared with placebo: more than tenfold; also recorded: tenfold
  increase in C max with ketoconazole compared with placebo: ≈ 1.8 fold and 1.8 fold
[2]; compared with midostaurin administered alone
  increase in geometric mean of apparent clearance with rifampicin: 16.9 fold
[2]; plasma, plasma, Placebo + midostaurin arm (midostaurin 50 mg once), rifampicin study, n = 20
  AUC(0-inf): 22800 ng·h/mL
[2]; plasma, plasma, Rifampicin + midostaurin arm (midostaurin 50 mg once, rifampicin 600 mg daily), n = 20
  AUC(0-inf): 1350 ng·h/mL
[2]; [12]
  AUC(0-t): 22000 ng·h/mL
  Cmax: 1620 ng/mL
  half-life: 23 h
[2]; [13]
  AUC(0-t): 1230 ng·h/mL
  Cmax: 440 ng/mL
  half-life: 5.14 h
[2]; midostaurin 50 mg single dose, rifampicin 600 mg daily
  decrease in exposure by induction of CYP3A4 by rifampicin: more than tenfold
[2]; plasma, Placebo + midostaurin arm, rifampicin study, n = 20
  t max, median: 1.02 h
CYP3A4 [3]; humans, single dose 100 mg and 50 mg twice daily
  inhibition or induction of CYP3A4 in vivo: neither an inhibitor nor inducer; also recorded: neither a CYP3A4 inhibitor nor a CYP3A4 inducer
CYP3A4 [3]; single or multiple doses of midostaurin
  effect on concentrations of midazolam and 1′-hydroxymidazolam: did not appreciably affect
[4]; all 3 studies, single agent or in combination, healthy volunteers
  tolerability: generally well tolerated
[4]; ketoconazole study, both arms pooled
  intensity of AEs: mild
[4]; [14]
  participants who discontinued the study because of AEs: 15%
  serious AEs: no serious AEs
[4]; [15]
  Adverse event: Abdominal distension: 0 n (%)
  Adverse event: Any preferred term: 13 (65.0) n (%)
  Adverse event: Back pain: 0 n (%)
  Adverse event: Chromaturia: 0 n (%)
  Adverse event: Cough: 0 n (%)
  Adverse event: Diarrhea: 4 (20.0) n (%)
  Adverse event: Discolored feces: 0 n (%)
  Adverse event: Dizziness: 5 (25.0) n (%)
  Adverse event: Dry skin: 0 n (%)
  Adverse event: Dyspepsia: 0 n (%)
  Adverse event: Feeling cold: 2 (10.0) n (%)
  Adverse event: Feeling hot: 0 n (%)
  Adverse event: Flatulence: 0 n (%)
  Adverse event: Headache: 2 (10.0) n (%)
  Adverse event: Hot flush: 0 n (%)
  Adverse event: Nasopharyngitis: 0 n (%)
  Adverse event: Nausea: 7 (35.0) n (%)
  Adverse event: Palpitations: 0 n (%)
  Adverse event: Pharyngolaryngeal pain: 0 n (%)
  Adverse event: Restlessness: 0 n (%)
  Adverse event: Rhinitis: 1 (5.0) n (%)
  Adverse event: Sleep disorder: 0 n (%)
  Adverse event: Somnolence: 0 n (%)
  Adverse event: Vomiting: 1 (5.0) n (%)
[5]
  bound to AAG: 88–98%
Patients with ASM; phase II investigator-initiated study, 100 mg twice daily, 26 patients with ASM
  response rate according to Valent criteria: 69%
Patients with ASM; [16]
  good partial responses (number of patients): 5
  incomplete remissions (number of patients): 6
  major responses (number of patients): 10
  minor partial responses (number of patients): 3
  pure clinical responses (number of patients): 4
Patients with ASM; [17]
  major response: 53%
  overall response rate: 60%
CYP3A4 [6]
  change in level of endogenous CYP3A4 biomarker 4-β-hydroxycholesterol in plasma: significant increase
[7]
  free midostaurin concentrations: 0.02 to 1 µM
  major pathway for elimination: Fecal excretion
[7]; daily oral dosing
  period of time-linear accumulation: 3 to 6 days
  time to new plateau of plasma concentrations: 2–3 weeks
[7]; healthy volunteers
  mean apparent volume of distribution: 111 L
[7]; human, in vivo, po
  time of peak plasma concentrations postdose: 1 to 3 h
[7]; single-dose administration
  dose proportionality of C max and AUC: increased proportionally with dose following single-dose administration of midostaurin between 25- and 50-mg doses but under proportionally between 50- and 100-mg doses
[8]; rifampicin study, by arm
  diarrhea: 33%
  nausea: 38%
  participants who experienced an AE: 62%
[8]; [18]
  Adverse event: Abdominal distension: 0 n (%)
  Adverse event: Any preferred term: 13 (61.9) n (%)
  Adverse event: Back pain: 1 (4.8) n (%)
  Adverse event: Chromaturia: 0 n (%)
  Adverse event: Cough: 0 n (%)
  Adverse event: Diarrhea: 7 (33.3) n (%)
  Adverse event: Discolored feces: 0 n (%)
  Adverse event: Dizziness: 0 n (%)
  Adverse event: Dry skin: 0 n (%)
  Adverse event: Dyspepsia: 0 n (%)
  Adverse event: Feeling cold: 0 n (%)
  Adverse event: Feeling hot: 0 n (%)
  Adverse event: Flatulence: 1 (4.8) n (%)
  Adverse event: Headache: 1 (4.8) n (%)
  Adverse event: Hot flush: 0 n (%)
  Adverse event: Nasopharyngitis: 2 (9.5) n (%)
  Adverse event: Nausea: 8 (38.1) n (%)
  Adverse event: Palpitations: 0 n (%)
  Adverse event: Pharyngolaryngeal pain: 0 n (%)
  Adverse event: Restlessness: 0 n (%)
  Adverse event: Rhinitis: 0 n (%)
  Adverse event: Sleep disorder: 0 n (%)
  Adverse event: Somnolence: 0 n (%)
  Adverse event: Vomiting: 1 (4.8) n (%)
